Data on three compounds can be found in ChEMBL document CHEMBL1201862, “PubChem BioAssay data set” (2004).

A word on the IC50: it is the concentration that inhibits the measured activity by half.

Active and inactive are the calls of the source. Cut-off read from the data, not from the text of the source: actives have a measured IC50 and inactives only a lower limit.

Envelope glycoprotein gp160, sequence (Q6QLK5 whole entry, the tested form may be a part): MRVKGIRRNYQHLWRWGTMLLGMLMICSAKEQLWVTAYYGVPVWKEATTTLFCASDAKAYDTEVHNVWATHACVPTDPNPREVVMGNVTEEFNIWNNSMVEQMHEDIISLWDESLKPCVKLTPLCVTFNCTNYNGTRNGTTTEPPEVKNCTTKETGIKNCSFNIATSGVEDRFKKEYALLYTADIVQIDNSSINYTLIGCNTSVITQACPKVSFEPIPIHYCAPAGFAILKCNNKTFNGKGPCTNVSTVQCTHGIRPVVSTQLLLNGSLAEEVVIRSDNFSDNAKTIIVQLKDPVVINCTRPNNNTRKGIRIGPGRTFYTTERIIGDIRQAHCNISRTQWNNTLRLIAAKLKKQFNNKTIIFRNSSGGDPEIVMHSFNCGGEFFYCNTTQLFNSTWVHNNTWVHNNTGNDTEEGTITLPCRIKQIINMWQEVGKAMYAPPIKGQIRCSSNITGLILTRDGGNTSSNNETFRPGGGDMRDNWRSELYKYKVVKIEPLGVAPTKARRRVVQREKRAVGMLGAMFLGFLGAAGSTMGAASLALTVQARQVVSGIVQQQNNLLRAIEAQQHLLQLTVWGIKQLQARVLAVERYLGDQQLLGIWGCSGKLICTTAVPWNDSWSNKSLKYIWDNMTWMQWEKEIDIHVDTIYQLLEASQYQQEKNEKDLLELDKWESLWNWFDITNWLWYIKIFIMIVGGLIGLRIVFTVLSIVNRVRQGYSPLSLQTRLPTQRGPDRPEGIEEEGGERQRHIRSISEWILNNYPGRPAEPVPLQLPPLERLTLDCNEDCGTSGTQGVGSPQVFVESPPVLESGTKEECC

The experiment has as its target Envelope glycoprotein gp160 (Human immunodeficiency virus 1, UniProt Q6QLK5). The experiment is described as follows: inhibitors of HIV fusion peptide binding, primary screen, biochemical, uHTS, fluorescence dequenching (AID 1986).
As for `O=C(NN1C(=O)/C(=C\c2ccc(O)c([N+](=O)[O-])c2)SC1=S)c1ccccc1Cl`, the half-maximal inhibitory concentration (IC50) was 24.9 µM (active). Consider `CC1=CN2C(=N)/C(=C/c3cc(Cl)c(O)c(Cl)c3)C(=O)N=C2S1`, for which the half-inhibitory concentration (IC50) is 26.2 µM (active).

`COc1cc(/C=C2/C(=O)NN(c3ccc(Cl)cc3)C2=O)cc(Br)c1O`: the half-inhibitory concentration (IC50) is 15.5 µM (active).
